{
  "source": "patent US7351744B2",
  "about": "“Naphthalene derivatives as termite repellents and toxicants” (Board of Supervisors of Louisiana State University and …, priority 2003, dated 2008)",
  "type_in_all_cases": "in vivo, Coptotermes formosanus",
  "key": {"[1]": {"test_system": "C. formosanus workers", "test": "Repellency, choice of treated and untreated filter paper in three-chambered containers", "details": "preliminary study; 23 μg/cm^2"}, "[2]": {"test_system": "C. formosanus workers and soldiers", "test": "Treated wood slices as sole food source", "details": "colonies C and WB combined", "procedure": "To assay the effect of 2′-acetonaphthone on termites when added to a sole food source, acute and cumulative toxicities of 2′-acetonaphthone-treated filter paper (Whatman #2) and balsa wood (Ochroma lagopus Swartz) slices (2.3 cm×4.0 cm) were evaluated. Seven concentrations (0, 1, 10, 50, 100, 500, and 1000 mg/l) were prepared in 100 ml ethanol. Six filter papers and six wood slices were soaked in each concentration for 4 h; control filter papers and wood slices were soaked only in ethanol. After treatment, the food sources were kept overnight at ambient conditions for solvent evaporation. Eighty-four plastic containers (5.5 cm diameter×3.7 cm height) were provided with 22 g of wetted sand (20 g sand (fine blasting sand #4, Cement Products Inc., Baton Rouge, La.) mixed with 2 ml DDH2O). Then either a filter paper or a wood slice was separately placed to fit on the surface of the wetted sand and wetted with DDH2O (250 μl). Into each container, fifty workers and 20 soldiers were placed on the surface of the filter paper or wood slice. For each concentration and food sourse, three replicates received termites from colony C, and three replicates received termites from colony WB. The containers were covered and incubated for 10 days at 27.4° C. and 70% RH. Containers were monitored everytwo days to ensure suitable moisture. On days 1, 5 and 10, the number of living workers and soldiers were counted. An average percent survival was calculated for each treatment. (See Tables 2 and 3)."}, "[3]": {"test_system": "C. formosanus workers", "test": "Repellency, choice of treated and untreated filter paper in three-chambered containers", "details": "for concentration of strong repellency and significant reduction in feeding activity: alternative food choice, 15 days", "excerpt": "Thirty-five transparent plastic containers (17.7 cm×8.0 cm×4.0 cm), Pioneer Packaging Co., North Dixon, Ky.), each with three chambers (8.0 cm×5.75 cm×4.0 cm), were used. An opening (3.5 cm×0.3 cm) was made at the bottom of each of the two inner walls, connecting the three chambers and allowing termites to move between the chambers. For each container, filter papers (Whatman #2, 5.5 cm diameter) were placed in the two lateral side chambers. For each treatment, five replicates (five containers) were used; for each replicate, one side chamber was marked “treated” and the other side chamber marked “untreated.”\nA stock solution of 2′-acetonaphthone was prepared by dissolving 0.952 mg (AI) in 5 ml ethanol (190.4 mg/l). One-half of this solution was used to apply 500 μl to filter paper placed in the “treated” chamber to test the highest concentration of 2′-acetonaphthone, 4.0 μg/cm^2. The remaining volume, 2.5 ml, was diluted by adding an equal volume of ethanol. One-half of this new solution was used to add 500 μl to each of 5 filter papers in a “treated” chamber to achieve a concentration of 2.0 μg/cm^2. This dilution and application step was repeated four more times to make four additional concentrations equivalent to 1.0, 0.50, 0.250 and 0.125 μg/cm^2. Filter papers placed in the “untreated” chambers were left untreated. Five containers served as replicates for each tested concentration. Five containers served as controls, in which filter paper in the “treated” chamber received 500 μl ethanol, and that in the “untreated” chamber was left untreated.\nContainers were kept at ambient conditons overnight for ethanol evaporation, and then all filter papers were weighed. In the middle chamber of all containers, 55 g wetted sand (50 g sand mixed with 5 ml DDH2O) was added, then packed and leveled to allow for clear visualization of tunnels along the bottom of the containers. Treated and untreated filter papers were wetted with 250 μl DDH2O. Then 100 workers and 5 soldiers from colony E were released onto the surface of the sand in the middle chamber.\nThe containers were covered and incubated for 12 days at 26.6° C. and 70% RH, and checked every 2 days for moisture content. The number of termites in the two lateral chambers was recorded daily for 3 days. On day 12, the bottom of each container was scanned (ScanJet 4c, Hewlett-Packard, Palo Alto, Calif.) and the images printed to measure and calculate the areas of tunnels. The experiment was ended on day 12, and the number of living termites in each container counted. The treated and untreated filter papers were gently cleaned using deionized water and a small brush to remove all debris. Filter papers were then oven dried at 60° C. for 3 h, and re-weighed to calculate food consumption.\nA second trial was conducted with higher concentrations of 2′-acetonaphthone (5 to 40 μ/cm^2) using the above technique with some modifications. A stock solution (1900 mg/l) was prepared by dissolving 0.038 g (AI) 2′-acetonaphthone in 20 ml ethanol. Dilutions were made by taking 6.0, 4.5, 3.0, 1.5, and 0.75 ml from the original stock, and adjusting the volume of each to 6.0 ml with ethanol to yield the following concentrations: 1900.0, 1425.0, 950.0, 475.0, 237.5 mg/l, respectively. For each concentration, ten containers were used, with the filter paper in the “treated” chamber coated with 500 μl of the tested concentration. Filter papers placed in the “untreated” chamber were left untreated. For controls, ten containers were similarly handled except that the filter paper in the “treated” chamber was coated with 500 μl ethanol. The solvent was allowed to evaporate overnight at ambient conditions. The final concentrations of 2′-acetonaphthone on the filter papers were 5, 10, 20, 30, and 40 μg/cm^2.\nThe ten containers for each concentration were equally divided into two equal sub-groups. […]"}},
  "data": [
    {"smiles": "CC(=O)c1ccc2ccccc2c1", "note": "[2′-acetonaphthone]", "values": [
      {"measurement": "feeding activity after 8 days exposure", "setting": "[1]", "result": "negligible"},
      {"measurement": "worker distribution", "setting": "[1]", "result": "workers avoided the treated side"},
      {"measurement": "Percent survival", "setting": "[2]; wood slices 1 mg/l, Day 1, Soldier", "result": "93.33 ± 1.67", "unit": "a %"},
      {"measurement": "Percent survival", "setting": "[2]; wood slices 1 mg/l, Day 1, Worker", "result": "85.0 ± 5.29", "unit": "a %"},
      {"measurement": "Percent survival", "setting": "[2]; wood slices 1 mg/l, Day 5, Soldier", "result": "60.0 ± 13.54", "unit": "a %"},
      {"measurement": "Percent survival", "setting": "[2]; wood slices 1 mg/l, Day 5, Worker", "result": "55.33 ± 12.87", "unit": "a %"},
      {"measurement": "Percent survival", "setting": "[2]; wood slices 1 mg/l, Day 10, Soldier", "result": "47.50 ± 11.61", "unit": "a %"},
      {"measurement": "Percent survival", "setting": "[2]; wood slices 1 mg/l, Day 10, Worker", "result": "52.67 ± 12.55", "unit": "a %"},
      {"measurement": "Percent survival", "setting": "[2]; wood slices 10 mg/l, Day 1, Soldier", "result": "86.67 ± 4.41", "unit": "a %"},
      {"measurement": "Percent survival", "setting": "[2]; wood slices 10 mg/l, Day 1, Worker", "result": "83.33 ± 5.03", "unit": "a %"},
      {"measurement": "Percent survival", "setting": "[2]; wood slices 10 mg/l, Day 5, Soldier", "result": "54.17 ± 11.14", "unit": "a %"},
      {"measurement": "Percent survival", "setting": "[2]; wood slices 10 mg/l, Day 5, Worker", "result": "63.67 ± 11.13", "unit": "a %"},
      {"measurement": "Percent survival", "setting": "[2]; wood slices 10 mg/l, Day 10, Soldier", "result": "46.67 ± 12.36", "unit": "a %"},
      {"measurement": "Percent survival", "setting": "[2]; wood slices 10 mg/l, Day 10, Worker", "result": "50.67 ± 8.79", "unit": "a %"},
      {"measurement": "Percent survival", "setting": "[2]; wood slices 50 mg/l, Day 1, Soldier", "result": "85.0 ± 5.0", "unit": "a %"},
      {"measurement": "Percent survival", "setting": "[2]; wood slices 50 mg/l, Day 1, Worker", "result": "86.67 ± 5.26", "unit": "a %"},
      {"measurement": "Percent survival", "setting": "[2]; wood slices 50 mg/l, Day 5, Soldier", "result": "48.33 ± 10.38", "unit": "a %"},
      {"measurement": "Percent survival", "setting": "[2]; wood slices 50 mg/l, Day 5, Worker", "result": "65.0 ± 13.51", "unit": "a %"},
      {"measurement": "Percent survival", "setting": "[2]; wood slices 50 mg/l, Day 10, Soldier", "result": "39.17 ± 8.41", "unit": "a %"},
      {"measurement": "Percent survival", "setting": "[2]; wood slices 50 mg/l, Day 10, Worker", "result": "49.67 ± 10.23", "unit": "a %"},
      {"measurement": "Percent survival", "setting": "[2]; wood slices 100 mg/l, Day 1, Soldier", "result": "90.0 ± 2.89", "unit": "a %"},
      {"measurement": "Percent survival", "setting": "[2]; wood slices 100 mg/l, Day 1, Worker", "result": "88.67 ± 3.33", "unit": "a %"},
      {"measurement": "Percent survival", "setting": "[2]; wood slices 100 mg/l, Day 5, Soldier", "result": "55.83 ± 11.94", "unit": "a %"},
      {"measurement": "Percent survival", "setting": "[2]; wood slices 100 mg/l, Day 5, Worker", "result": "56.67 ± 12.15", "unit": "a %"},
      {"measurement": "Percent survival", "setting": "[2]; wood slices 100 mg/l, Day 10, Soldier", "result": "45.0 ± 9.58", "unit": "a %"},
      {"measurement": "Percent survival", "setting": "[2]; wood slices 100 mg/l, Day 10, Worker", "result": "47.67 ± 10.97", "unit": "a %"},
      {"measurement": "Percent survival", "setting": "[2]; wood slices 500 mg/l, Day 1, Soldier", "result": "80.83 ± 10.44", "unit": "a %"},
      {"measurement": "Percent survival", "setting": "[2]; wood slices 500 mg/l, Day 1, Worker", "result": "84.67 ± 2.41", "unit": "a %"},
      {"measurement": "Percent survival", "setting": "[2]; wood slices 500 mg/l, Day 5, Soldier", "result": "17.50 ± 7.61", "unit": "b %"},
      {"measurement": "Percent survival", "setting": "[2]; wood slices 500 mg/l, Day 5, Worker", "result": "54.33 ± 8.01", "unit": "a %"},
      {"measurement": "Percent survival", "setting": "[2]; wood slices 500 mg/l, Day 10, Soldier", "result": "4.17 ± 2.38", "unit": "b %"},
      {"measurement": "Percent survival", "setting": "[2]; wood slices 500 mg/l, Day 10, Worker", "result": "30.67 ± 9.18", "unit": "a %"},
      {"measurement": "Percent survival", "setting": "[2]; wood slices 1000 mg/l, Day 1, Soldier", "result": "84.17 ± 7.24", "unit": "a %"},
      {"measurement": "Percent survival", "setting": "[2]; wood slices 1000 mg/l, Day 1, Worker", "result": "86.67 ± 3.53", "unit": "a %"},
      {"measurement": "Percent survival", "setting": "[2]; wood slices 1000 mg/l, Day 5, Soldier", "result": "2.50 ± 2.49", "unit": "b %"},
      {"measurement": "Percent survival", "setting": "[2]; wood slices 1000 mg/l, Day 5, Worker", "result": "13.0 ± 9.85", "unit": "b %"},
      {"measurement": "Percent survival", "setting": "[2]; wood slices 1000 mg/l, Day 10, Soldier", "result": "0.0 ± 0.0", "unit": "b %"},
      {"measurement": "Percent survival", "setting": "[2]; wood slices 1000 mg/l, Day 10, Worker", "result": "5.67 ± 4.27", "unit": "b %"},
      {"measurement": "concentration of strong repellency and significant reduction in feeding activity", "setting": "[3]", "result": "≥ 20", "unit": "μg/cm^2"},
      {"measurement": "concentration of strong repellency and significant reduction in feeding activity", "setting": "[3]; listed as 2′-Acetonaphthone", "result": "≥ 20.0", "unit": "μg/cm^2"},
      {"measurement": "concentration of strong repellency and significant reduction in feeding activity", "setting": "[3]; listed as 2′-aceetonaphthone", "result": "≥ 20.0", "unit": "μg/cm^2"},
      {"measurement": "concentration of strong repellency and significant reduction in feeding activity", "setting": "[3]; listed as 2′-acetonapththone", "result": "≥ 20", "unit": "μg/cm^2"},
      {"measurement": "Survival rates after 15 days exposure", "setting": "[3]; concentrations ≧20 μg/cm^2, control 63.0%, difference not significant", "result": "45.0-51.2%"},
      {"measurement": "concentration with significant differences in termite distribution between the chambers", "setting": "[3]; day 8", "result": "≥ 5.0", "unit": "μg/cm^2"},
      {"measurement": "concentration at which repellent", "setting": "[3]; untreated food source available", "result": 5, "unit": "μg/cm^2 filter paper"},
      {"measurement": "concentration with significantly more termites in the untreated chamber than in the treated chamber", "setting": "[3]; within the first 3 days", "result": "≥ 10.0", "unit": "μg/cm^2"}
    ]}
  ]
}
